Measurements published in patent US9879243B2, “Culture medium for cell growth and transfection” (LIFE TECHNOLOGIES CORPORATION, priority 2001, dated 2018).

How the values were obtained:
293 cells [1] = assay: Effect of replacement compounds on the growth of 293 cells in 293 SFM without transferrin, three passages; type: cell-based, human; settings: third passage, control 5 μg/mL human holo-transferrin
293 cells [2] = assay: X-gal in situ staining, % transfection efficiency, 293 cells in 24-well plates; type: cell-based, human; settings: Example 7
Method: The third well of each treatment was used for in situ staining for β-galactosidase activity (i.e., ˜1×10^6 cells).
The transfection efficiency of cells grown in the presence of ZnSO4+ chelating agent as a replacement for insulin was tested at various concentrations of chelator and ZnSO4 and the results are shown in Table 10. Cells were prepared in monolayer culture in base medium containing the indicated supplements and transfected and assayed as described above.
293 cells were grown in monolayer culture in base media supplemented with the indicated chelator and metal salt at the indicated concentrations. The concentration of the chelator is given in μmoles/l and the concentration of the metal salt is given in μgrams/ml. […] The concentration of the cells in the media was 1×10^6 cell/ml, the concentration of DNA used was 1 μg DNA/10^6 cells, the concentration of LIPOFECTAMINE 2000 used was 8 μl/10^6 cells.
For cells transfected in 24-well plates, cells densities used were 1×10^6 viable cells per well.

[3] = 25 μM, iron equimolar where combined

Compound	mean percentage of control growth (293 cells [1]; [3])	mean percentage of control growth (293 cells [1]; 50 μM)	mean percentage of control growth (293 cells [1]; 100 μM)	X-gal staining transfection efficiency (293 cells [2]; media with 1× ZnSO4)	X-gal staining transfection efficiency (293 cells [2]; media with insulin)
CCc1occc(=O)c1O [2-Ethyl-3-Hydroxy-4-Pyrone]	59 percentage of control growth	120 percentage of control growth	126 percentage of control growth	~40%	50-60%
Diethylenetriamine Penta-Acetic Acid•Ferrous Sulfate	77 percentage of control growth	107 percentage of control growth	85 percentage of control growth		
